Measured values published in patent US20140221369A1, “5-DEUTERO-2,4-THIAZOLIDINEDIONE AND 5-DEUTERO-2,4-OXAZOLIDINEDIONE DERIVATIVES AND COMPOSITIONS COMPRISING AND METHODS OF USING THE SAME” (DeuteRx, LLC, priority 2013, published 2014).

Key:
[1] = In vitro stability in human plasma at 37° C. (enantiomerization and D/H exchange, chiral LC/MS-MS, kinetic fit); type: in vitro ADME; conditions: for k, h+ → h− / k, h− → h+: enantiomerization rate constant, fit of the stability data of the protonated enantiomer
Procedure: The (+)-5-[(p-{[6-(4-amino-3,5-xylyloxy)-1-methyl-1,3-diaza-1H-inden-2-yl]methoxy}phenyl)methyl]-1,3-thiazolidine-2,4-dione, (−)-5-[(p-{[6-(4-amino-3,5-xylyloxy)-1-methyl-1,3-diaza-1H-inden-2-yl]methoxy}phenyl)methyl]-1,3-thiazolidine-2,4-dione, and rac-5-[(p-{[6-(4-amino-3,5-xylyloxy)-1-methyl-1,3-diaza-1H-inden-2-yl]methoxy}phenyl)methyl]-(5-^2H)-1,3-thiazolidine-2,4-dione were incubated in human plasma (K3EDTA as anticoagulant) at 37° C. in duplicates. […] It also contained ˜15% of the protonated enantiomers. Aliquots were removed at time=0, 5, 10, 15, 30 min, and 1, 2, 4, and 8 hours. Plasma proteins were precipitated by addition of acetonitrile containing cisapride as an internal standard (ISTD) and the supernatants were analyzed semi-quantitatively by LC/MS-MS with elution on a chiral column (Daicel ChiralPak IC-3) for the separation of enantiomers (isocratic method of 30:70 v/v 20 mM ammonium bicarbonate in water (pH=9.0) and acetonitrile). Peak areas for the deuterated enantiomers (+)-5-[(p-{[6-(4-amino-3,5-xylyloxy)-1-methyl-1,3-diaza-1H-inden-2-yl]methoxy}phenyl)methyl]-1,3-thiazolidine-2,4-dione and (−)-5-[(p-{[6-(4-amino-3,5-xylyloxy)-1-methyl-1,3-diaza-1H-inden-2-yl]methoxy}phenyl)methyl]-(5-^2H)-1,3-thiazolidine-2,4-dione were normalized to the ISTD and corrected for the isotopic peak of the corresponding protonated enantiomer, (+)-5-[(p-{[6-(4-amino-3,5-xylyloxy)-1-methyl-1,3-diaza-1H-inden-2-yl]methoxy}phenyl)methyl]-1,3-thiazolidine-2,4-dione and (−)-5-[(p-{[6-(4-amino-3,5-xylyloxy)-1-methyl-1,3-diaza-1H-inden-2-yl]methoxy}phenyl)methyl]-1,3-thiazolidine-2,4-dione, respectively, if present. Corrected data were analyzed and plotted using Microsoft Excel 2013 (Microsoft Corp, Redmond, Wash.) and the Excel Solver.
Scheme 1 illustrates possible reactions in a solution of a mixture of deuterated enantiomers when no degradation or side-reactions occur. The deuterium in both enantiomers, d+ and d−, can be lost by D/H exchange to give both protonated enantiomers, h+ and h− with rate constants kD++, kD+−, kD−+, kD−−, where D indicates D/H exchange, the first +/− represents the reagent, d+ or d−, and the second +/− stands for the product, h+ or h−. At the same time, the protonated enantiomers h+ and h− can exchange, with enantiomerization rate constants k+− and k−+.
Illustration of possible reactions and corresponding rate constants in a solution of rac-5-[(p-{[6-(4-amino-3,5-xylyloxy)-1-methyl-1,3-diaza-1H-inden-2-yl]methoxy}phenyl)methyl]-(5-^2H)-1,3-thiazolidine-2,4-dione where d+, d−, h+, h− stand for […] and (−)-5-[(p-{[6-(4-amino-3,5-xylyloxy)-1-methyl-1,3-diaza-1H-inden-2-yl]methoxy}phenyl)methyl]-(5-^2H)-1,3-thiazolidine-2,4-dione and (+)- and (−)-5-[(p-{[6-(4-amino-3,5-xylyloxy)-1-methyl-1,3-diaza-1H-inden-2-yl]methoxy}phenyl)methyl]-1,3-thiazolidine-2,4-dione, respectively.
Independent analyses of the data for h+ and h− were performed first and the average rate constants k+− and k−+ from these two fits were calculated and used as constants in the fitting of the stability data of the deuterated racemate. Calculated concentrations were obtained through numerical approximation of differential equations (1) and (2) for the stability studies of h+ and h− and equations (3) to (6) for the stability study of the enantiomeric mixture of deuterated d+ and d− by the Euler method (equation (7)). The step between calculated time points was minimized in order to minimize the local error (proportional to the square of the step size) and the global error (proportional to the step size). Data analysis was performed in Microsoft Excel 2013, using the Solver Generalized Reduced Gradient Nonlinear method with central derivatives to minimize the sum of sums of weighted Δ^2, square of difference between ISTD-normalized experimental data and calculated value, divided by the experimental data. […]

[2] = target: T1, peroxisome proliferator-activated receptor gamma (PPARγ) (Homo sapiens, UniProt P37231); assay: TRAP220 PPARγ coactivator recruitment assay (Cerep); type: biochemical; conditions: for EC50: TRAP220 coactivator recruitment, percent of control (10 μM rosiglitazone), four-parameter fit, read-out: EC50, PPARγ agonist activity
T1 construct: label (kind not specified); Cerep (France), contract assay
Procedure: The agonist activity of (+)- and (−)-5-[(p-{[6-(4-amino-3,5-xylyloxy)-1-methyl-1,3-diaza-1H-inden-2-yl]methoxy}phenyl)methyl]-(5-^2H)-1,3-thiazolidine-2,4-dione at the peroxisome proliferator-activated receptor gamma (PPARγ) was evaluated in the thyroid receptor-associated protein complex, 220 kDa component (TRAP220) PPARγ coactivator recruitement assay performed at Cerep (France). Briefly, a mixture of labeled PPARγ and TRAP220 coactivator was pre-incubated with a fluorescence acceptor at room temperature for 30 minutes in the presence of a fluorescence acceptor and the test compound. A fluorescence donor was then added and the mixture was incubated for 120 minutes at room temperature. The fluorescence signal was measured and results expressed as a percent of control (10 μM rosiglitazone). A dose response curve was generated for each enantiomer and the experimental data was analyzed using the log(agonist) vs. response−variable slope (four parameters) nonlinear model in GraphPad Prism 6.0 (GraphPad Software, Inc., La Jolla, Calif.).

[3] = D/H exchange rate constant, mixture of d− and d+ in human plasma at 37° C., fit to Equations 1 to 6
[4] = average of enantiomerization rate constants obtained by fitting data for h− and h+, human plasma at 37° C.

T1 sequence (P37231 whole entry): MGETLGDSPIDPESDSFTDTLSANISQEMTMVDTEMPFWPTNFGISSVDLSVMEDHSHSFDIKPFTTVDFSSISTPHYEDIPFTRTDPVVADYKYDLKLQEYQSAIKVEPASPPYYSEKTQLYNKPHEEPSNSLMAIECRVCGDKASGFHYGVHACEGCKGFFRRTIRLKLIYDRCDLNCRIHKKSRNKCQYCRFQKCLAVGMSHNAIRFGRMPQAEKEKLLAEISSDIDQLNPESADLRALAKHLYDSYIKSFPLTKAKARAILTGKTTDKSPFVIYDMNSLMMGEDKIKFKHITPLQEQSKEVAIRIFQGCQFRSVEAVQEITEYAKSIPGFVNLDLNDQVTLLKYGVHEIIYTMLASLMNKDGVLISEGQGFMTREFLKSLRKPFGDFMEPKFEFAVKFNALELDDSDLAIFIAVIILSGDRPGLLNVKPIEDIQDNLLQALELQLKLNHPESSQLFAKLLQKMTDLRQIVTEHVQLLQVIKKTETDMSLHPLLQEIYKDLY
T1 sequence (Q15648 whole entry partner): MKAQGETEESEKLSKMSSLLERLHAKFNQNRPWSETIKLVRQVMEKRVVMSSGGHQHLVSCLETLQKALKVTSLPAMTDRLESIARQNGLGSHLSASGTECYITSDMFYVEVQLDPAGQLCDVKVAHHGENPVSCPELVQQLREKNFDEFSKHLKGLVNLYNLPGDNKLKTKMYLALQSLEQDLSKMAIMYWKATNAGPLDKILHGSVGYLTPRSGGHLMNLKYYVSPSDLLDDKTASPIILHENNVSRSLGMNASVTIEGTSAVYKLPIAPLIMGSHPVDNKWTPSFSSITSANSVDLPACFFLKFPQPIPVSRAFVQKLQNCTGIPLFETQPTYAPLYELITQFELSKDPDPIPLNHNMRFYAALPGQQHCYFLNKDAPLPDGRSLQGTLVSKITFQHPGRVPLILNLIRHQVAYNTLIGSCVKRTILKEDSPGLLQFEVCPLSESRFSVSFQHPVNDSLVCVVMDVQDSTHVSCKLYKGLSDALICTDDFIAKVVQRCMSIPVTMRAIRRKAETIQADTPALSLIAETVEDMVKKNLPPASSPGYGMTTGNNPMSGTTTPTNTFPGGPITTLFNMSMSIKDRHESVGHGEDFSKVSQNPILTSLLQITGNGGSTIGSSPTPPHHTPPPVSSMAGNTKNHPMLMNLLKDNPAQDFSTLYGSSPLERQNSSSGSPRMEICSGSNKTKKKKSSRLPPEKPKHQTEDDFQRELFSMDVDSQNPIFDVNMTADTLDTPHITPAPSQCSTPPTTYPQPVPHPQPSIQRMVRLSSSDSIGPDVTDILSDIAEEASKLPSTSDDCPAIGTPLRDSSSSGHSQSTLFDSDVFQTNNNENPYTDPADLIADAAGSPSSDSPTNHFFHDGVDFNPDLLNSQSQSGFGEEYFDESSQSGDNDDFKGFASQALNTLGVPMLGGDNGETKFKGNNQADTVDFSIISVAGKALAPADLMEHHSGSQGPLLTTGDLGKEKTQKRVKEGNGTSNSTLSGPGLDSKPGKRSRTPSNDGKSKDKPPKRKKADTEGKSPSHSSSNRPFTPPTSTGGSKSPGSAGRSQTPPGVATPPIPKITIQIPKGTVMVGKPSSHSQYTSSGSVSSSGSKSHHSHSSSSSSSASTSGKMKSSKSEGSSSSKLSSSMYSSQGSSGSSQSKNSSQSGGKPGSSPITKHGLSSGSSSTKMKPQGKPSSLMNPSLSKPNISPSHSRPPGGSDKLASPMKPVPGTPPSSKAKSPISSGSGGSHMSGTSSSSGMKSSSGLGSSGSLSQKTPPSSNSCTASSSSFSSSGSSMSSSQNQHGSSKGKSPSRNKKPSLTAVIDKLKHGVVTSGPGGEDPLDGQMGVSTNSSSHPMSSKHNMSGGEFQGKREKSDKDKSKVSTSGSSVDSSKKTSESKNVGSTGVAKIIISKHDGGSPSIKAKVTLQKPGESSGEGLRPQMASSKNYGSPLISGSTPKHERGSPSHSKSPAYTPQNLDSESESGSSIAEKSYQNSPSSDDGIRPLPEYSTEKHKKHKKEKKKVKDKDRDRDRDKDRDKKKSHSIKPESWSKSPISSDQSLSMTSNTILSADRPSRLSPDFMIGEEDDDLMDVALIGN

Question: For `[2H]C1(Cc2ccc(OCc3nc4ccc(Oc5cc(C)c(N)c(C)c5)cc4n3C)cc2)SC(=O)NC1=O` (racemic) [d−/d+, rac-5-[(p-{[6-(4-amino-3,5-xylyloxy)-1-methyl-1,3-diaza-1H-inden-2-yl]methoxy}phenyl)methyl]-(5-^2H)-1,3-thiazolidine-2,4-dione], which “k, d+ → h+” value [1, 3] is on record?
Answer: The value was 0 h⁻¹.

Question: What about the “k, d+ → h−” value [1, 3] of the same compound?
Answer: Its value is 0.300 h⁻¹.

Question: What about the “k, d− → h+” value [1, 3] of the same compound?
Answer: The value was 0.211 h⁻¹.

Question: What about the “k, d− → h−” value [1, 3] of the same compound?
Answer: Its value is 0.499 h⁻¹.

Question: And the “k, h+ → h− (average used in analysis of the deuterated mixture)” value [1, 4]?
Answer: Its value is 0.802 h⁻¹.

Question: What about the “k, h− → h+ (average used in analysis of the deuterated mixture)” value [1, 4] of the same compound?
Answer: The value was 0.668 h⁻¹.

Question: Which “potency relative to the (−) enantiomer d− (fold less potent)” value ([2]; ratio of EC50) does the source give for `Cc1cc(Oc2ccc3nc(COc4ccc(CC5SC(=O)NC5=O)cc4)n(C)c3c2)cc(C)c1N` (single isomer, unassigned; (+)) [d+, (+)-5-[(p-{[6-(4-amino-3,5-xylyloxy)-1-methyl-1,3-diaza-1H-inden-2-yl]methoxy}phenyl)methyl]-(5-^2H)-1,3-thiazolidine-2,4-dione] here?
Answer: Its value is 7 fold.

Question: Which results are given for `[2H]C1(Cc2ccc(OCc3nc4ccc(Oc5cc(C)c(N)c(C)c5)cc4n3C)cc2)SC(=O)NC1=O` (single isomer, unassigned; (+)) [d+, (+)-5-[(p-{[6-(4-amino-3,5-xylyloxy)-1-methyl-1,3-diaza-1H-inden-2-yl]methoxy}phenyl)methyl]-(5-^2H)-1,3-thiazolidine-2,4-dione]?
Answer: stability of d+ relative to h+ ([1]; human plasma at 37° C.): 2-3 fold; EC50 [2]: 0.0487 µM

Question: Which “k, h+ → h−” value ([1]; human plasma at 37° C.) does the source give for `Cc1cc(Oc2ccc3nc(COc4ccc(CC5SC(=O)NC5=O)cc4)n(C)c3c2)cc(C)c1N` (single isomer, unassigned; (+)) [h+, (+)-5-[(p-{[6-(4-amino-3,5-xylyloxy)-1-methyl-1,3-diaza-1H-inden-2-yl]methoxy}phenyl)methyl]-1,3-thiazolidine-2,4-dione, reference compound] here?
Answer: The value was 0.803 h⁻¹.

Question: And the “k, h− → h+” value ([1]; human plasma at 37° C.)?
Answer: Its value is 0.665 h⁻¹.

Question: For `[2H]C1(Cc2ccc(OCc3nc4ccc(Oc5cc(C)c(N)c(C)c5)cc4n3C)cc2)SC(=O)NC1=O` (single isomer, unassigned; (-)) [d−, (−)-5-[(p-{[6-(4-amino-3,5-xylyloxy)-1-methyl-1,3-diaza-1H-inden-2-yl]methoxy}phenyl)methyl]-(5-^2H)-1,3-thiazolidine-2,4-dione], which “stability of d− relative to h−” value ([1]; human plasma at 37° C.) is on record?
Answer: Its value is “not more stable than h−”.

Question: What about the EC50 [2] of the same compound?
Answer: The EC50 was 0.0074 µM.

Question: Which “k, h+ → h−” value ([1]; human plasma at 37° C.) does the source give for `Cc1cc(Oc2ccc3nc(COc4ccc(CC5SC(=O)NC5=O)cc4)n(C)c3c2)cc(C)c1N` (single isomer, unassigned; (-)) [h−, (−)-5-[(p-{[6-(4-amino-3,5-xylyloxy)-1-methyl-1,3-diaza-1H-inden-2-yl]methoxy}phenyl)methyl]-1,3-thiazolidine-2,4-dione, reference compound] here?
Answer: The value was 0.800 h⁻¹.

Question: What about the “k, h− → h+” value ([1]; human plasma at 37° C.) of the same compound?
Answer: Its value is 0.671 h⁻¹.
